Data reported in US20130267757A1, “ANTH[…] USE AS RADIOS[…] CANCER TREATMENT” (Sensit Science Ltd., priority 2010, published 2013).
Entries after “also recorded” stand apart in the source; their conditions may differ.

How the values were obtained:
[1] = tested on: C6 Rat-Glioma grown in monolayer; test: AlamarBlue cell proliferation assay after radiosensitizer and irradiation, C6 monolayer; format: cell-based; settings: 0.1 μM
Description: The following cell lines were originally obtained from the American Type Culture collection (ATTC):
(§1) Rat glioma cell line: C6 (ATCC number: CCL107)
(§2) Human colorectal cancer cell line: HT-29 (ATCC number: HTB-38). All cells were cultured routinely in DMEM supplemented with 10% FCS.
(§3) Three hypericin derivatives were used in the assay, including hypericin tetrasulfonic acid (HyTS); Tetrabromo hypericin (TBrHy); and Hexamethyl hypericin (HxMeHy). In addition, as control, hypericin and/or Photofrin II as well as cells exposed only to radiation, i.e. without a radiosensitizing agent.
(§4) The hypericin, hypericin derivatives and photofrin II were used in doses ranging from 0.1 μM up to 2 μM. All compounds were dissolved in DMSO, and were protected from light.
(§5) In all cases, control and tumor cells were exposed to ionizing radiation (Siemens X-ray device with 250 kV or with LINAC) at 24 h after the incubation with Hyperecin, Photofrin II or Hypericin derivatives indicated below. […] The response of the tumor to the radiation treatment was evaluated by determining growth delay using the described cell proliferation assay.
(§6) Cell proliferation assay using AlamarBlue
(§7) Unless indicated otherwise, the tumor cell lines were cultured at a starting density of 1×10^5 cells/mL in DMEM and 10% FCS. […] Absorbance was measured at 570 nm and 600 nm using a micro-titer plate reader. […]

[2] = tested on: C6 Rat-Glioma grown as cancer stem cells spheres; test: AlamarBlue cell proliferation assay after radiosensitizer and irradiation, C6 cancer stem cell spheres; format: cell-based; settings: 0.1 μM; irradiation 10 Gy; 5 days post irradiation; FIG. 3B, P<0.049
Description: as §1
To obtain tumor stem cells, cells were cultured in stem cell conditioned media. Briefly, breast and glioma cancer cells were cultured in serum-free DMEM media containing […] bovine insulin, 100 μg/ml human transferrin, 100 μg/ml BSA, 60 ng/ml progesterone, 16 μg/ml putrescine, 40 μg/ml sodium selenite, 63 μg/ml N-acetylcysteine, 5 μM forskolin, 50 units/ml penicillin, and 50 μg/ml streptomycin, 10 ng/ml bFGF, and 10 ng/ml PDGF. In all experiments, cells were maintained in 100 mm or 96 well plate culture dishes at 37° C. in a humidified […] and were protected from light.
Three hypericin derivatives were used in the assay, including hypericin tetrasulfonic acid (HyTS); Tetrabromo hypericin (TBrHy); and Hexamethyl hypericin (HxMeHy). […]
as §5, with “assay. […]” for “assay.”
as §7

Dayo-human Glioma tumor = test: AlamarBlue cell proliferation assay after radiosensitizer and irradiation, Dayo; format: cell-based; settings: 0.1 μM; FIG. 4B, P<0.01
Description: Human glioma cell lines: Daoy (ATCC number: HTB-186) and
as §2, §3, §4
(§8) In all cases, control and tumor cells were exposed to ionizing radiation (Siemens X-ray device with 250 kV or with LINAC) at 24 h after the incubation with Hyperecin, Photofrin II or Hypericin derivatives indicated below. The total delivered radiation dose was a 10 Gy, provided in a single irradiation session on the second day of culture. The response of the tumor to the radiation treatment was evaluated by determining growth delay using the described cell proliferation assay.
as §6, §7

[3] = tested on: MCF-7 human breast carcinoma; test: AlamarBlue cell proliferation assay after radiosensitizer and irradiation, MCF-7 monolayer; format: cell-based; settings: 1 μM
Description: (§9) Human breast carcinoma: MCF-7 (ATCC number: HTB-22); MDA-MB-231 (ATCC number: HTB-26)
as §2, §3, §4
as §8, with “assay. […]” for “assay.”
as §7

[4] = tested on: MD-MB-231-human breast carcinoma; test: AlamarBlue cell proliferation assay after radiosensitizer and irradiation, MDA-MB-231; format: cell-based; settings: 1 μM; FIG. 4C, P<0.05
Description: as §9, §2, §3, §4
as §8, with “assay. […]” for “assay.”
as §7

[5] = tested on: HT29-human colon carcinoma; test: AlamarBlue cell proliferation assay after radiosensitizer and irradiation, HT29; format: cell-based; settings: FIG. 4E, P<0.05
Description: as §2, §3, §4, §8, §6, §7

[6] = tested on: HT29-colon cancer grown in monolayer; test: Example 2B AlamarBlue proliferation, HT29 linear cells; format: cell-based, human; settings: 0.1-2 μM; single dose 10 Gy; FIG. 6A
Description: (§10) Linear cell (Lin) HT29 and MCF7 human breast carcinoma, were obtained from the American Type Culture Collection (ATCC).
(§11) Cells were cultured in Dulbecco's Modified Eagle Medium (DMEM), supplemented with 10% fetal calf serum (FCS) and antibiotics.
(§12) Three photosensitizing agents were used, Hypericin (Hy), Tetrabromo hypericin (TBrHy), and hypericin tetrasulfonic acid (HyTS) in the following concentrations: 0.1 μM, 1 μM and 2 μM. Drugs were protected from light for all time. Control cells were treated with 0.1% DMSO (vehicle).
(§13) Linear and CSC were exposed to 3 Gy irradiation daily for four consecutive days or to a single dose of 10 Gy radiation. Radiation was initiated one day after treatment with the hypericin or hypericin derivatives.
(§14) Linear and CSCs were cultured in a 96 plate in triplicates. Each cell line was treated with the three radiosensitizing agents in the indicated doses. In addition culture cells were exposure to radiation. A day before the irradiation, the radiosensitizing agents were added to the culture. Cells were allowed to grow over a period of 5 days using the method of AlamarBlue™ reduction assay. 10% Alamar Blue solution added to each well. Cells viability was measured using Eliza Reader at two different wavelengths: 570 nm and 600 nm, and the appropriate equation was calculated to reflect cell viability.

[7] = tested on: HT29-colon cancer grown as cancer stem cells spheres; test: Example 2B AlamarBlue proliferation, HT29 cancer stem cells; format: cell-based, human; settings: 0.1-2 μM; single dose 10 Gy; FIG. 6B; compared with monolayer
Description: as §10
(§15) Enrichment of the cancer stem cells (CSCs) population was done by incubating linear cells in a DMEM/F-12 (HAM) 1:1 medium supplement with Insulin-Transferin-Soldium Selenite, and growth factors specific for each cell line. Cells considered enriched for CSCs after 10-15 days in CSCs medium.
as §12, §13
as §14, with “Cells were allowed to grow over a period of 5 days using the method of AlamarBlue™ reduction assay. 10% Alamar Blue solution added to each well.” left out

[8] = tested on: MCF-7 human breast carcinoma grown as monolayer; test: Example 2B AlamarBlue proliferation, MCF7 linear cells; format: cell-based; settings: 0.1-2 μM; single dose 10 Gy; FIG. 6C
Description: as §10, §11, §12, §13, §14

[9] = tested on: MCF-7 human breast carcinoma grown as cancer stem cells spheres; test: Example 2B AlamarBlue proliferation, MCF7 cancer stem cells; format: cell-based; settings: for inhibiting proliferation of MCF7 human breast cancer cells grown as stem cells: 0.1-2 μM, single dose 10 Gy, FIG. 6D; for effect in MCF7 cancer stem cells compared with monolayer: FIGS. 6C and 6D
Description: as §10, §15, §12, §13, §14

[10] = Treatment toxicity: body weight and overall behaviour (Example 4A); format: in vivo, nude mice; settings: 10 mg/kg; for tolerability of treatment: alone or in combination with radiation, nude mice; for change in mice body weight and mice behaviour: measured twice weekly
Description: (§16) Mice injected with 5% DMSO vehicle served as the control untreated group. Immediately after the injections, the mice were placed in the dark. For each group of radiosensitizing agent treated mice, half of the treated mice were then treated with a 10 Gy dose of radiation, initiated two hours after the administration of the radiosensitizing agents.
Treatment toxicity was evaluated using two parameters, (i) measuring mice's body weight and (ii) monitoring overall mice behaviour, both parameters were measured twice weekly.

U87 human glioma tumors [11] = settings: 10 mg/kg + 10 Gy radiation; CB.17 SCID mice; FIG. 8A
Description: U87 human glioma cells at a concentration of 5×10^6 were implanted into the flank of eight to ten weeks old CB.17 SCID mice (n=4-5 mice per group).
Treatment was initiated when the tumors reached a size of 100-150 mm^3, and included the following treatment groups:
Specifically, mice were injected with the radiosensitizing agent, and immediately placed in the dark. Radiation was initiated two hours after radiosensitizing administration. Mice were kept in the dark for the following 72 hours, in order to minimize the effect of light on the traces of the radiosensitizing agents. Tumor volume was monitored prior to treatment and thereafter twice weekly.

[12] = tested on: PANC01 human pancreatic adenocarcinoma cells; test: PANC01 human pancreatic adenocarcinoma tumors in CB.17 SCID mice, tumor volume (Example 4C); format: in vivo; settings: 10 mg/kg + 10 Gy radiation; for tumor volume of PANC1 pancreatic tumors, agent with radiation: CB.17 SCID mice, FIG. 8B
Description: Mice were injected with the radiosensitizing agent, and immediately after were placed in the dark. Radiation was conducted 2 hours after radiosensitizing administration. […] Tumor volume was measured prior to the treatment and thereafter twice weekly.

U87 Tumors [13] = settings: during the 2 hours prior to radiation
Description: U87 Tumors were implanted subcutaneously in nude mice and then examined under a UV light lamp and the colour intensity was visualized.
(§17) These studies were aimed at assessing the localization of radiosensitizing agents and were conducted by two complementary techniques; the first in implanted U87 human glioma tumors using UV lamp and the second in extracted U87 tumors using Flow Cytometry techniques.

U87 Tumors [14] = settings: wavelength of 665 nm; with or without radiation
Description: U87 Tumors were resected when tumors reached end-point (1500 mm^3), minced, and digested in 4 mg/ml collagenase III, 2 mg/ml hyaluronidase, and 2 mg/ml collagenase IV in serum free DMEM, for 20 min, at 37° C. Cells were then filtered through a 40 μm sieve, and washed twice with PBS to obtain single U87 cell suspension.
The single U87 tumor cell suspensions were then acquired on Cyan ADP flow cytometer (Beckman Coulter) and analyzed with Summit (Beckman Coulter) software.
The FL8 channel, (wavelength of 655/20 nm) was used to detect differences between positive and negative cells. From each sample, at least 50,000 cells were acquired.
as §17

[15] = brain sections of treated mice, fluorescence 550-650 nm
U87 human glioma tumors [16] = test: U87 human glioma tumors implanted in nude mice, tumor growth (Example 4A); format: in vivo; settings: 10 mg/kg + 10 Gy radiation
Description: as §16
Overall, eight groups of treatment were evaluated as follows:
Tumor growth was evaluated by measuring the tumor's volume twice weekly.

Compound | inhibiting proliferation of MCF7 human breast cancer cells grown as monolayer [8] | inhibiting proliferation of MCF7 human breast cancer cells grown as stem cells [9] | effect in MCF7 cancer stem cells compared with monolayer [9] | tolerability of treatment [10] | change in mice body weight and mice behaviour [10] | tumor volume of PANC1 pancreatic tumors, agent with radiation [12] | colour of tumors under UV light (U87 Tumors [13]) | fluorescent signal of tumor cells by flow cytometry (U87 Tumors [14]) | BBB penetration [15] | also measured
COc1cc(C)c2c3c(C)cc(OC)c4c(=O)c5c(OC)cc(OC)c6c7c(OC)cc(OC)c8c(=O)c1c2c(c87)c(c43)c56 [HxMeHy, Hexamethyl hypericin] | – | – | – | – | – | – | – | – | – | radiosensitizing effect on C6 brain cancer (proliferation on day 5) ([1]; FIG. 4A): effective radiosensitizing agent; proliferation of C6 glioma cells in monolayer (AlamarBlue, fold increase) ([1]; irradiation 10 Gy, 5 days post irradiation, FIG. 3A, P<0.05): statistically inhibited the proliferation; proliferation of C6 glioma cells grown as CSCs (AlamarBlue, fold increase) [2]: statistically inhibited the proliferation; radiosensitizing effect on Dayo tumor (proliferation on day 5) (Dayo-human Glioma tumor): effective radiosensitizing agent
Cc1c(S(=O)(=O)O)c(O)c2c(=O)c3c(O)c(S(=O)(=O)O)c(O)c4c5c(O)c(S(=O)(=O)O)c(O)c6c(=O)c7c(O)c(S(=O)(=O)O)c(C)c8c1c2c(c34)c(c78)c65 [HyTS, hypericin tetrasulfonic acid] | effective in inhibiting the proliferation | effective in inhibiting the proliferation | more pronounced | well tolerated | no significant change | anti-tumor activity | colored in red | fluorescent signal was detected | does not penetrate the BBB | radiosensitizing effect on breast cancer MCF-7 (proliferation on day 5) ([3]; FIG. 4D, P<0.01): statistically significantly effective; proliferation of MCF-7 breast cancer cells grown as monolayer (AlamarBlue, fold increase) ([3]; irradiation 10 Gy, 5 days post radiation, FIG. 3C, P<0.03): statistically inhibited the proliferation; radiosensitizing effect on breast cancer MD-MB-231 (proliferation on day 5) [4]: statistically significantly effective; radiosensitizing effect on colon cancer HT29 (proliferation on day 5) ([5]; 1 μM): effective radiosensitizing agents; radiosensitizing HT-29 colon cancer cells (monolayer) [6]: effective in radiosensitizing; sensitivity of HT-29 colon cancer stem cells to treatment [7]: more sensitive; tumor volume of U87 tumors, agent with radiation (U87 human glioma tumors [11]): anti-tumor activity; anti-tumor activity in PANC1 pancreatic tumors compared with U87 [12]: somewhat better activity
Cc1c(Br)c(O)c2c(=O)c3c(O)c(Br)c(O)c4c5c(O)c(Br)c(O)c6c(=O)c7c(O)c(Br)c(C)c8c1c2c(c34)c(c78)c65 [TBrHy, Tetrabromo hypericin] | effective in inhibiting the proliferation | effective in inhibiting the proliferation | more pronounced | well tolerated | no significant change | most potent radiosensitizing agent; also recorded: enhanced anti-tumor activity | colored in red | fluorescent signal was detected | penetrated the BBB | radiosensitizing effect on colon cancer HT29 (proliferation on day 5) ([5]; 0.1 μM): effective radiosensitizing agents; tumor growth of U87 tumors, agent combined with radiotherapy (U87 human glioma tumors [16]; nude mice, FIG. 7): most effective radiosensitizing agent; also recorded: better anti-tumor activity; tumor removal in one mouse (U87 human glioma tumors [16]; one mouse, 4 days after treatment): completely removed
